In ChEMBL document CHEMBL3045530, “Synthesis, antimycobacterial, antiviral, antimicrobial activities, and QSAR studies of isonicotinic acid-1-(substituted phenyl)-ethylidene/cycloheptylidene hydrazides” (Med Chem Res, 2012):
Converted amounts (≈) assume the structure as drawn.

Legend:
Human alphaherpesvirus 1 [1] = experiment: Antiviral activity against TK(-) aciclovir-resistant Human herpesvirus 1 strain KOS infected in human HEL cells assessed as inhibition of virus-induced cytopathicity; type: functional, organism-based; details: Human alphaherpesvirus 1, KOS
Sindbis virus = experiment: Antiviral activity against Sindbis virus infected Vero cells assessed as inhibition of virus-induced cytopathicity; type: functional, organism-based
HEL = experiment: Cytostatic against Homo sapiens (human) HEL cells assessed as alteration in cell morphology by microscopy; type: ADME, cell-based
Human respirovirus 3 = experiment: Antiviral activity against Human parainfluenza virus 3 infected Vero cells assessed as inhibition of virus-induced cytopathicity by microscopy; type: functional, organism-based; details: Human respirovirus 3, Vero
Coxsackievirus B4 [2] = experiment: Antiviral activity against Human coxsackievirus B4 infected human HeLa cells assessed as inhibition of virus-induced cytopathicity by microscopy; type: functional, organism-based; details: Enterovirus B
Coxsackievirus B4 [3] = experiment: Antiviral activity against Human coxsackievirus B4 infected Vero cells assessed as inhibition of virus-induced cytopathicity; type: functional, organism-based; details: Enterovirus B
Human alphaherpesvirus 2 = experiment: Antiviral activity against Human herpesvirus 2 strain G infected human HEL cells assessed as inhibition of virus-induced cytopathicity by microscopy; type: functional, organism-based; details: Human alphaherpesvirus 2, strain G
[4] = Cytotoxicity against Homo sapiens (human) MT4 cells after 4 days by MTT assay; type: cell-based
[5] = test system: Mammalian orthoreovirus 1; experiment: Antiviral activity against Mammalian orthoreovirus 1 infected Vero cells assessed as inhibition of virus-induced cytopathicity by microscopy; type: functional, organism-based; details: Mammalian orthoreovirus 1, Vero
[6] = test system: Vesicular stomatitis virus; experiment: Antiviral activity against Vesicular stomatitis virus infected human HeLa cells assessed as inhibition of virus-induced cytopathicity by microscopy; type: functional, organism-based
[7] = test system: Human herpesvirus 5 strain AD169; experiment: Antiviral activity against Human herpesvirus 5 strain AD169 Davis infected human HEL cells assessed as inhibition of virus-induced cytopathicity by microscopy; type: functional, organism-based; details: Human betaherpesvirus 5, Davis
[8] = Cytotoxicity against Homo sapiens (human) HeLa cells assessed as alteration in cell morphology by microscopy; type: cell-based; details: read-out: MTC
Escherichia coli = experiment: Antimicrobial activity against Escherichia coli after 24 hr by tube dilution method; type: functional
Staphylococcus aureus = experiment: Antimicrobial activity against Staphylococcus aureus after 24 hr by tube dilution method; type: functional
[9] = test system: Human herpesvirus 3 strain Oka vaccine; experiment: Antiviral activity against Human herpesvirus 3 strain Oka vaccine OKA 07-1 (Varicella zoster virus ) infected in human HEL cells assessed as inhibition of virus-induced cytopathicity; type: functional, organism-based; details: Human alphaherpesvirus 3, HEL
[10] = test system: Human immunodeficiency virus 1; experiment: Antiviral activity against Human immunodeficiency virus 1 IIIB infected MT4 cells assessed as inhibition of virus-induced cytopathic effect after 4 days by MTT assay; type: functional, organism-based; details: MT4, 96 h
[11] = test system: Human immunodeficiency virus 2; experiment: Antiviral activity against Human immunodeficiency virus type 2 (ISOLATE ROD) infected MT4 cells assessed as inhibition of virus-induced cytopathic effect after 4 days by MTT assay; type: functional, organism-based; details: Human immunodeficiency virus 2, ISOLATE ROD, MT4, 96 h
Human alphaherpesvirus 1 [12] = experiment: Antiviral activity against Human herpesvirus 1 strain KOS infected human HEL cells assessed as inhibition of virus-induced cytopathicity by microscopy by microscopy; type: functional, organism-based; details: Human alphaherpesvirus 1, KOS
[13] = Cytotoxicity against Homo sapiens (human) HEL cells assessed as alteration in cell morphology by microscopy; type: cell-based; details: for MCC: read-out: MTC
Punta Toro virus = experiment: Antiviral activity against Punta Toro virus infected Vero cells assessed as inhibition of virus-induced cytopathicity; type: functional, organism-based
Bacillus subtilis = experiment: Antimicrobial activity against Bacillus subtilis after 24 hr by tube dilution method; type: functional
[14] = Cytotoxicity against Chlorocebus aethiops (African green monkey) Vero cells assessed as alteration in cell morphology by microscopy; type: cell-based; details: chlorocebus sabaeus, read-out: MTC
[15] = test system: Respiratory syncytial virus; experiment: Antiviral activity against Respiratory syncytial virus infected human HeLa cells assessed as inhibition of virus-induced cytopathicity by microscopy; type: functional, organism-based
Aspergillus niger = experiment: Antimicrobial activity against Aspergillus niger after 7 days by tube dilution method; type: functional
Vaccinia virus = experiment: Antiviral activity against Vaccinia virus infected human HEL cells assessed as inhibition of virus-induced cytopathicity by microscopy; type: functional, organism-based; details: Orthopoxvirus vaccinia
Candida albicans = experiment: Antimicrobial activity against Candida albicans after 48 hr by tube dilution method; type: functional

SMILES	EC50 (Human alphaherpesvirus 1 [1]) [µg/mL]	EC50 (Sindbis virus) [µg/mL]	Activity (HEL)	EC50 (Human respirovirus 3) [µg/mL]	EC50 (Coxsackievirus B4 [2]) [µg/mL]	EC50 (Coxsackievirus B4 [3]) [µg/mL]	EC50 (Human alphaherpesvirus 2) [µg/mL]	CC50 at 96 h [4] [µg/mL]	EC50 [5] [µg/mL]	EC50 [6] [µg/mL]	EC50 [7] [µg/mL]	MCC [8] [µg/mL]	-logMIC (Escherichia coli)	-logMIC (Staphylococcus aureus)	EC50 [9] [µg/mL]	EC50 [10] [µg/mL]	EC50 [11] [µg/mL]	-logMIC (Bacillus subtilis)	-logMIC (Aspergillus niger)	-logMIC (Candida albicans)	further results
C/C(=N\NC(=O)c1ccncc1)c1ccc(Br)cc1	> 20	> 20	Toxic	> 20	> 4	> 20	> 20	43 (≈ 135 µM)	> 20	> 4	> 20	20	2.41	2.1	> 20	> 43	> 43	2.1	2.41	2.41	EC50 (Human alphaherpesvirus 1 [12]): > 20 µg/mL; CC50 [13]: 51 µg/mL (≈ 160 µM); MCC [13]: ≥ 20 µg/mL; EC50 (Punta Toro virus): > 20 µg/mL; MCC [14]: ≥ 20 µg/mL; EC50 [15]: > 4 µg/mL; EC50 (Vaccinia virus): > 20 µg/mL
C/C(=N\NC(=O)c1ccncc1)c1ccccc1O	4 (≈ 15.7 µM)	> 4	Toxic	> 4	> 0.2	> 4	1.3 (≈ 5.09 µM)	0.5 (≈ 1.96 µM)	> 4	> 0.2	> 0.8	1	2.31	2.01	1.8 (≈ 7.05 µM)	> 0.5	> 0.5	2.01	2.31	2.61	EC50 (Human alphaherpesvirus 1 [12]): 1.4 µg/mL (≈ 5.48 µM); CC50 [13]: 0.4 µg/mL (≈ 1.57 µM); MCC [13]: 100 µg/mL; EC50 (Punta Toro virus): > 4 µg/mL; MCC [14]: ≥ 4 µg/mL; EC50 [15]: > 0.2 µg/mL; EC50 (Vaccinia virus): 3.5 µg/mL (≈ 13.7 µM)
C/C(=N\NC(=O)c1ccncc1)c1cccc([N+](=O)[O-])c1	> 20	> 4	Toxic	> 4	> 4	> 4	> 20	63 (≈ 222 µM)	> 4	> 4	> 20	20	2.36	2.06	> 4	> 63	> 63	2.06	2.36	2.36	EC50 (Human alphaherpesvirus 1 [12]): > 20 µg/mL; CC50 [13]: 13 µg/mL (≈ 45.7 µM); MCC [13]: 100 µg/mL; EC50 (Punta Toro virus): > 4 µg/mL; MCC [14]: 20 µg/mL; EC50 [15]: > 4 µg/mL; EC50 (Vaccinia virus): > 20 µg/mL
Cc1cn([C@H]2C[C@H](N=[N+]=[N-])[C@@H](CO)O2)c(=O)[nH]c1=O [ZIDOVUDINE]	–	–	–	–	–	–	–	> 25	–	–	–	–	–	–	–	–	–	–	–	–	–
COc1ccc(/C(C)=N/NC(=O)c2ccncc2)c(OC)c1	> 100	> 20	Toxic	> 20	> 4	> 20	> 100	12 (≈ 40.1 µM)	> 20	> 4	> 20	20	2.08	2.38	> 20	> 12	> 12	2.38	2.38	2.68	EC50 (Human alphaherpesvirus 1 [12]): > 100 µg/mL; CC50 [13]: 10 µg/mL (≈ 33.4 µM); MCC [13]: > 100 µg/mL; EC50 (Punta Toro virus): > 20 µg/mL; MCC [14]: 100 µg/mL; EC50 [15]: > 4 µg/mL; EC50 (Vaccinia virus): > 100 µg/mL
C/C(=N\NC(=O)c1ccncc1)c1ccc(O)cc1	> 20	> 20	Toxic	> 20	> 20	> 20	> 20	95 (≈ 372 µM)	> 20	> 20	> 20	100	2.01	2.01	> 20	> 95	> 95	2.01	2.31	2.31	EC50 (Human alphaherpesvirus 1 [12]): > 20 µg/mL; CC50 [13]: 91 µg/mL (≈ 356 µM); MCC [13]: 100 µg/mL; EC50 (Punta Toro virus): > 20 µg/mL; MCC [14]: ≥ 20 µg/mL; EC50 [15]: > 20 µg/mL; EC50 (Vaccinia virus): > 20 µg/mL
C/C(=N\NC(=O)c1ccncc1)c1ccc([N+](=O)[O-])cc1	> 100	> 20	Toxic	> 20	> 20	> 20	> 100	77 (≈ 271 µM)	> 20	> 20	> 20	100	2.36	2.06	> 20	> 77	> 77	2.06	2.36	2.36	EC50 (Human alphaherpesvirus 1 [12]): > 100 µg/mL; CC50 [13]: 54 µg/mL (≈ 190 µM); MCC [13]: > 100 µg/mL; EC50 (Punta Toro virus): > 20 µg/mL; MCC [14]: 100 µg/mL; EC50 [15]: > 20 µg/mL; EC50 (Vaccinia virus): > 100 µg/mL
COc1ccc(OC)c(/C(C)=N/NC(=O)c2ccncc2)c1	> 100	> 100	Toxic	> 100	> 100	> 100	> 100	88 (≈ 294 µM)	> 100	> 100	> 100	> 100	2.68	2.08	> 100	> 88	> 88	2.08	2.38	2.38	EC50 (Human alphaherpesvirus 1 [12]): > 100 µg/mL; CC50 [13]: 100 µg/mL (≈ 334 µM); MCC [13]: > 100 µg/mL; EC50 (Punta Toro virus): > 100 µg/mL; MCC [14]: > 100 µg/mL; EC50 [15]: > 100 µg/mL; EC50 (Vaccinia virus): > 100 µg/mL
NNC(=O)c1ccncc1 [ISONIAZID]	–	–	–	–	–	–	–	–	–	–	–	–	1.74	2.04	–	–	–	1.74	2.04	2.34	–
C/C(=N\NC(=O)c1ccncc1)c1ccccc1Br	–	–	Toxic	–	–	–	–	–	–	–	–	–	2.41	2.41	–	–	–	2.71	2.41	2.71	–
C/C(=N\NC(=O)c1ccncc1)c1ccc(Cl)cc1	> 20	> 20	Toxic	> 20	> 20	> 20	> 20	88 (≈ 321 µM)	> 20	> 20	> 20	100	2.34	2.34	> 20	> 88	> 88	2.04	2.34	2.34	EC50 (Human alphaherpesvirus 1 [12]): > 20 µg/mL; CC50 [13]: 20 µg/mL (≈ 73.1 µM); MCC [13]: 100 µg/mL; EC50 (Punta Toro virus): > 20 µg/mL; MCC [14]: 100 µg/mL; EC50 [15]: > 20 µg/mL; EC50 (Vaccinia virus): > 20 µg/mL
OC(Cn1cncn1)(Cn1cncn1)c1ccc(F)cc1F [FLUCONAZOLE]	–	–	–	–	–	–	–	–	–	–	–	–	–	–	–	–	–	–	2.64	2.64	–
CCn1cc(C(=O)O)c(=O)c2cc(F)c(N3CCNCC3)cc21 [NORFLOXACIN]	–	–	–	–	–	–	–	–	–	–	–	–	2.61	2.61	–	–	–	2.61	–	–	–
C/C(=N\NC(=O)c1ccncc1)c1ccc(O)cc1O	2 (≈ 7.37 µM)	> 4	Toxic	> 4	> 0.8	> 4	2 (≈ 7.37 µM)	9.7 (≈ 35.8 µM)	> 4	> 0.8	> 4	4	2.04	2.04	8 (≈ 29.5 µM)	> 9.7	> 9.7	2.04	2.34	2.64	EC50 (Human alphaherpesvirus 1 [12]): 2.5 µg/mL (≈ 9.22 µM); CC50 [13]: 2.1 µg/mL (≈ 7.74 µM); MCC [13]: > 100 µg/mL; EC50 (Punta Toro virus): > 4 µg/mL; MCC [14]: 20 µg/mL; EC50 [15]: > 0.8 µg/mL; EC50 (Vaccinia virus): 2.5 µg/mL (≈ 9.22 µM)
Cc1ccnc2c1NC(=O)c1cccnc1N2C1CC1 [NEVIRAPINE]	–	–	–	–	–	–	–	> 4	–	–	–	–	–	–	–	–	> 4	–	–	–	–
